According to patent US20220024882A1, “NOVEL TUMOR ANTIGEN BINDING AGENTS AND USES THEREOF” (ITM Isotopen Technologien München AG, priority 2018, published 2022):
“And” between values parts separate entries of the source, which are not always exact repeats. Equal entries are not always repeated.

Assays:
[1] = system: PC-3 PIP/flu tumor-bearing mice; assay: Biodistribution study in PC-3 PIP/flu tumor-bearing mice; type: in vivo, athymic nude Balb/c mice; details: for Kidneys / Tumor-to-kidney / Blood / Bone / Heart / Intestines / Liver / Lung / Muscle / Salivary glands / Spleen / Stomach / Tumor-to-blood / Tumor-to-liver: PC-3 PIP/flu tumor-bearing mice; for PC-3 flu Tumor: PSMA-negative tumor xenograft; for PC-3 flu Tumor / PC-3 PIP Tumor: mice; for PC-3 PIP Tumor: PSMA-positive tumor xenograft
Procedure: (§1) In vivo experiments were approved by the local veterinarian department and conducted in accordance with the Swiss law of animal protection. Mice were obtained from Charles River Laboratories, Sulzfeld, Germany, at the age of 5-6 weeks. Female, athymic nude Balb/c mice were subcutaneously inoculated with PSMA-positive PC-3 PIP cells (6×10^6 cells in 100 μL Hank's balanced salt solution (HBSS) with Ca^2+/Mg^2+) on the right shoulder and with PSMA-negative PC-3 flu cells (5×10^6 cells in 100 μL HBSS Ca^2+/Mg^2+) on the left shoulder. Two weeks later, the tumors reached a size of about 80-300 mm^3 suitable for the performance of the biodistribution studies.
Biodistribution studies were performed 12-15 days after PC-3 PIP/flu tumor cell inoculation. […] The radioligands were injected in a lateral tail vein in a volume of 100-200 μL. Mice were euthanized at different time points after injection (p.i.) of the radioligands. Selected tissues and organs were collected, weighed and measured using a γ-counter. The results were decay-corrected and listed as a percentage of the injected activity per gram of tissue mass (% IA/g) (Table 3 and 4).
Mice were obtained from Charles River Laboratories, Sulzfeld, Germany, at the age of 5-6 weeks. Female, athymic nude BALB/c mice were subcutaneously inoculated with PSMA-positive PC-3 PIP cells (6×10^6 cells in 100 μL Hank's balanced salt solution (HBSS)) on the right shoulder and with PSMA-negative PC-3 flu cells (5×10^6 cells in 100 μL HBSS) on the left shoulder. Two weeks later, the tumors reached a size of about 80-300 mm^3 suitable for the performance of the biodistribution and imaging studies.
Biodistribution studies were performed 12-15 days after PC-3 PIP/flu tumor cell inoculation. ^177Lu-Ibu-sPSMA was diluted in 0.9% NaCl containing 0.05% bovine serum albumin (BSA) to prevent adhesion to the vial and syringe material. The radioligand was injected in a lateral tail vein in a volume of 100 μL. Mice were euthanized at different time points after injection (p.i.) of the radioligand. Selected tissues and organs were collected, weighed and measured using a γ-counter. The results were decay-corrected and listed as a percentage of the injected activity per gram of tissue mass (% IA/g) (Table 6, FIG. 18).

[2] = Whole-body activity measurements, tumor-bearing mice; type: in vivo, athymic nude Balb/c mice; details: 4 h p.i., 30 MBq, 1 nmol i.v., activity right after injection = 100%
Procedure: as §1, with “imaging” for “biodistribution”
The single radioligands (specific activity: 30 MBq/nmol) were diluted in 0.9% NaCl containing 0.05% bovine serum albumin (BSA) and i.v. injected into PC-3 PIP/flu tumor bearing mice (30 MBq, 1 nmol, 100 μL) for SPECT/CT imaging purposes. The mice were measured in a dose calibrator at 4 h, 24 h, 48 h and 72 h p.i., respectively.

Compound `CC(C)Cc1ccc(C(C)C(=O)NC(CC(=O)O)C(=O)NCCCCC(NC(=O)CN2CCN(CC(=O)O)CCN(CC(=O)O)CCN(CC(=O)O)CC2)C(=O)NCC2CCC(C(=O)NC(Cc3ccc4ccccc4c3)C(=O)NCCCCC(NC(=O)NC(CCC(=O)O)C(=O)O)C(=O)O)CC2)cc1` (centres unmarked) [^177Lu-Ibu-Dα-PSMA, metal not drawn] has a Kidneys ([1]; 1 h p.i.) of 73±2 % IA/g, a Tumor-to-kidney ([1]; 1 h p.i.) of 0.59±0.08 and a Blood ([1]; 4 h p.i.) of 2.33 ± 0.71 % IA/g. It also gave a Bone ([1]; 4 h p.i.) of 0.37 ± 0.10 % IA/g, a Heart ([1]; 4 h p.i.) of 0.89 ± 0.27 % IA/g and an Intestines ([1]; 4 h p.i.) of 0.49 ± 0.08 % IA/g. The Kidneys ([1]; 4 h p.i.) was 27.2 ± 3.31 % IA/g, the Liver ([1]; 4 h p.i.) was 0.84 ± 0.22 % IA/g and the Lung ([1]; 4 h p.i.) was 1.54 ± 0.35 % IA/g. The Muscle ([1]; 4 h p.i.) was 0.35 ± 0.08 % IA/g, the Salivary glands ([1]; 4 h p.i.) was 0.74 ± 0.20 % IA/g and the Spleen ([1]; 4 h p.i.) was 0.90 ± 0.04 % IA/g. For the same compound, the Stomach ([1]; 4 h p.i.) was 0.25 ± 0.08 % IA/g, the Tumor-to-blood ([1]; 4 h p.i.) was 22.5 ± 5.28 and the Tumor-to-kidney ([1]; 4 h p.i.) was 1.82 ± 0.03. For the same compound, the Tumor-to-liver ([1]; 4 h p.i.) was 60.8 ± 11.1, the “PC-3 flu Tumor” value ([1]; 4 h p.i.) was 1.00 ± 0.21 % IA/g and the “PC-3 PIP Tumor” value ([1]; 4 h p.i.) was 49.4 ± 5.33 % IA/g. For the same compound, the Blood ([1]; 24 h p.i.) was 0.33 ± 0.06 % IA/g, the Bone ([1]; 24 h p.i.) was 0.11 ± 0.02 % IA/g and the Heart ([1]; 24 h p.i.) was 0.18 ± 0.03 % IA/g. For the same compound, the Intestines ([1]; 24 h p.i.) was 0.11 ± 0.02 % IA/g, the Kidneys ([1]; 24 h p.i.) was 18.2 ± 3.06 % IA/g and the Liver ([1]; 24 h p.i.) was 0.37 ± 0.04 % IA/g. The Lung ([1]; 24 h p.i.) was 0.39 ± 0.09 % IA/g, the Muscle ([1]; 24 h p.i.) was 0.07 ± 0.02 % IA/g and the Salivary glands ([1]; 24 h p.i.) was 0.21 ± 0.04 % IA/g. It also gave a Spleen ([1]; 24 h p.i.) of 0.46 ± 0.10 % IA/g, a Stomach ([1]; 24 h p.i.) of 0.12 ± 0.03 % IA/g and a Tumor-to-blood ([1]; 24 h p.i.) of 198 ± 32.6. For the same compound, the Tumor-to-kidney ([1]; 24 h p.i.) was 3.56 ± 0.34, the Tumor-to-liver ([1]; 24 h p.i.) was 196 and 196 ± 44.4 and the “PC-3 flu Tumor” value ([1]; 24 h p.i.) was 0.38 ± 0.05 % IA/g. For the same compound, the “PC-3 PIP Tumor” value ([1]; 24 h p.i.) was 84.2±14.9 % IA/g and the “whole-body retention of radioactivity” value [2] was 29%.
